Source: ChEMBL document CHEMBL1124314, “Development of phosphonate derivatives of gadolinium chelates for NMR imaging of calcified soft tissues” (J Med Chem, 1989)

What was measured:
Rattus norvegicus [1] = species on record: Rattus norvegicus; assay: Biodistribution in rat bone in the presence of 0.10 M GdDTPA-BDP; format: ADME, organism-based, Bone element; settings: in vivo
Rattus norvegicus [2] = species on record: Rattus norvegicus; assay: Biodistribution in rat bone in the presence of GdDTPA at 1 hr; format: ADME, organism-based, Bone element; settings: in vivo
Rattus norvegicus [3] = species on record: Rattus norvegicus; assay: Biodistribution in rat bone in the presence of GdDTPA at 30 min; format: ADME, organism-based, Bone element; settings: in vivo, 0.5 h
Rattus norvegicus [4] = species on record: Rattus norvegicus; assay: Biodistribution in rat bone in the presence of GdDTPA at 4 hr; format: ADME, organism-based, Bone element; settings: in vivo
Rattus norvegicus [5] = species on record: Rattus norvegicus; assay: Biodistribution in rat bone in the presence of GdDTPA-BDP at 1 hr; format: ADME, organism-based, Bone element; settings: in vivo
Rattus norvegicus [6] = species on record: Rattus norvegicus; assay: Biodistribution in rat bone in the presence of GdDTPA-HPDP at 30 min; format: ADME, organism-based, Bone element; settings: in vivo, 0.5 h
Rattus norvegicus [7] = species on record: Rattus norvegicus; assay: Biodistribution in rat heart in the presence of 0.01 M Gd/0.01 M GdDTPA-AEP; format: ADME, organism-based; settings: in vivo
Rattus norvegicus [8] = species on record: Rattus norvegicus; assay: Biodistribution in rat heart in the presence of 0.05 M /0.05 M GdDTPA-AEP; format: ADME, organism-based; settings: in vivo
Rattus norvegicus [9] = species on record: Rattus norvegicus; assay: Biodistribution in rat heart in the presence of GdDTPA at 1 hr; format: ADME, organism-based; settings: in vivo
Rattus norvegicus [10] = species on record: Rattus norvegicus; assay: Biodistribution in rat heart in the presence of GdDTPA-BDP at 30 min; format: ADME, organism-based; settings: in vivo, 0.5 h
Rattus norvegicus [11] = species on record: Rattus norvegicus; assay: Biodistribution in rat kidney in the presence of 0.01 M/0.01 M GdDTPA-AEP; format: ADME, organism-based; settings: in vivo
Rattus norvegicus [12] = species on record: Rattus norvegicus; assay: Biodistribution in rat kidney in the presence of 0.05 M/0.08 M GdDTPA-HPDP; format: ADME, organism-based; settings: in vivo
Rattus norvegicus [13] = species on record: Rattus norvegicus; assay: Biodistribution in rat kidney in the presence of NAC Gd/0.01 M GdDTPA-HPDP; format: ADME, organism-based; settings: in vivo
Rattus norvegicus [14] = species on record: Rattus norvegicus; assay: Biodistribution in rat liver in the presence of GdDTPA-HPDP at 15 min; format: ADME, organism-based; settings: in vivo, 0.25 h
Rattus norvegicus [15] = species on record: Rattus norvegicus; assay: Biodistribution in rat liver in the presence of GdDTPA-HPDP at 30 min; format: ADME, organism-based; settings: in vivo, 0.5 h
Rattus norvegicus [16] = species on record: Rattus norvegicus; assay: Biodistribution in rat liver in the presence of GdDTPA-HPDP at 4 hr; format: ADME, organism-based; settings: in vivo
Rattus norvegicus [17] = species on record: Rattus norvegicus; assay: Biodistribution in rat muscle in the presence of GdDTPA-BDP at 1 hr; format: ADME, organism-based, Muscle tissue; settings: in vivo
Rattus norvegicus [18] = species on record: Rattus norvegicus; assay: Biodistribution in rat muscle in the presence of GdDTPA-BDP at 4 hr; format: ADME, organism-based, Muscle tissue; settings: in vivo
Rattus norvegicus [19] = species on record: Rattus norvegicus; assay: Biodistribution in rat muscle in the presence of GdDTPA-BDPat 15 min; format: ADME, organism-based, Muscle tissue; settings: in vivo, 0.25 h
Rattus norvegicus [20] = species on record: Rattus norvegicus; assay: Biodistribution in rat muscle in the presence of GdDTPA-HPDP at 1 hr; format: ADME, organism-based, Muscle tissue; settings: in vivo
Rattus norvegicus [21] = species on record: Rattus norvegicus; assay: Biodistribution in rat muscle in the presence of GdDTPA-HPDP at 4 hr; format: ADME, organism-based, Muscle tissue; settings: in vivo
Rattus norvegicus [22] = species on record: Rattus norvegicus; assay: Biodistribution in rat muscle in the presence of GdDTPA-HPDPat 30 min; format: ADME, organism-based, Muscle tissue; settings: in vivo, 0.5 h
Rattus norvegicus [23] = species on record: Rattus norvegicus; assay: Biodistribution in rat spleen in the presence of 0.01 M GdDTPA-BDP; format: ADME, organism-based; settings: in vivo
Rattus norvegicus [24] = species on record: Rattus norvegicus; assay: Biodistribution in rat spleen in the presence of 0.10 M GdDTPA-BDP; format: ADME, organism-based; settings: in vivo
Rattus norvegicus [25] = species on record: Rattus norvegicus; assay: Biodistribution in rat liver in the presence of 0.01 M GdDTPA-BDP; format: ADME, organism-based; settings: in vivo
Rattus norvegicus [26] = species on record: Rattus norvegicus; assay: Biodistribution in rat liver in the presence of 0.01 M/0.01 M GdDTPA-AEP; format: ADME, organism-based; settings: in vivo
Rattus norvegicus [27] = species on record: Rattus norvegicus; assay: Biodistribution in rat liver in the presence of 0.05 M GdDTPA-BDP; format: ADME, organism-based; settings: in vivo
Rattus norvegicus [28] = species on record: Rattus norvegicus; assay: Biodistribution in rat liver in the presence of 0.05 M/0.05 M GdDTPA-AEP; format: ADME, organism-based; settings: in vivo
Rattus norvegicus [29] = species on record: Rattus norvegicus; assay: Biodistribution in rat liver in the presence of 0.10 M GdDTPA-BDP; format: ADME, organism-based; settings: in vivo
Rattus norvegicus [30] = species on record: Rattus norvegicus; assay: Biodistribution in rat liver in the presence of GdDTPA at 15 min; format: ADME, organism-based; settings: in vivo, 0.25 h
Rattus norvegicus [31] = species on record: Rattus norvegicus; assay: Biodistribution in rat liver in the presence of GdDTPA at 30 min; format: ADME, organism-based; settings: in vivo, 0.5 h
Rattus norvegicus [32] = species on record: Rattus norvegicus; assay: Biodistribution in rat blood in the presence of GdDTPA-BDP at 4 hr; format: ADME, organism-based; settings: in vivo
Rattus norvegicus [33] = species on record: Rattus norvegicus; assay: Biodistribution in rat blood in the presence of GdDTPA-HPDP at 15 min; format: ADME, organism-based; settings: in vivo, 0.25 h
Rattus norvegicus [34] = species on record: Rattus norvegicus; assay: Biodistribution in rat bone in the presence of 0.05 M GdDTPA-BDP; format: ADME, organism-based, Bone element; settings: in vivo
Rattus norvegicus [35] = species on record: Rattus norvegicus; assay: Biodistribution in rat bone in the presence of 0.05 M/0.05 M GdDTPA-AEP; format: ADME, organism-based, Bone element; settings: in vivo
Rattus norvegicus [36] = species on record: Rattus norvegicus; assay: Biodistribution in rat bone in the presence of 0.05 M/0.08 M GdDTPA-HPDP; format: ADME, organism-based, Bone element; settings: in vivo
Rattus norvegicus [37] = species on record: Rattus norvegicus; assay: Biodistribution in rat blood in the presence of 0.001 M/0.008 M GdDTPA-AEP; format: ADME, organism-based; settings: in vivo
Rattus norvegicus [38] = species on record: Rattus norvegicus; assay: Biodistribution in rat blood in the presence of 0.01 M GdDTPA-BDP; format: ADME, organism-based; settings: in vivo
Rattus norvegicus [39] = species on record: Rattus norvegicus; assay: Biodistribution in rat blood in the presence of 0.01 M/0.01 M GdDTPA-AEP; format: ADME, organism-based; settings: in vivo
Rattus norvegicus [40] = species on record: Rattus norvegicus; assay: Biodistribution in rat blood in the presence of 0.05 M/0.05 M GdDTPA-AEP; format: ADME, organism-based; settings: in vivo
Rattus norvegicus [41] = species on record: Rattus norvegicus; assay: Biodistribution in rat blood in the presence of 0.10 M GdDTPA-BDP; format: ADME, organism-based; settings: in vivo
Rattus norvegicus [42] = species on record: Rattus norvegicus; assay: Biodistribution in rat blood in the presence of GdDTPA at 1 hr; format: ADME, organism-based; settings: in vivo
Rattus norvegicus [43] = species on record: Rattus norvegicus; assay: Biodistribution in rat blood in the presence of GdDTPA at 30 min; format: ADME, organism-based; settings: in vivo, 0.5 h
Rattus norvegicus [44] = species on record: Rattus norvegicus; assay: Biodistribution in rat heart in the presence of GdDTPA-HPDPat 15 min; format: ADME, organism-based; settings: in vivo, 0.25 h
Rattus norvegicus [45] = species on record: Rattus norvegicus; assay: Biodistribution in rat liver in the presence of GdDTPA-HPDP at 1 hr; format: ADME, organism-based; settings: in vivo
Rattus norvegicus [46] = species on record: Rattus norvegicus; assay: Biodistribution in rat muscle in the presence of GdDTPA-HPDPat 15 min; format: ADME, organism-based, Muscle tissue; settings: in vivo, 0.25 h
Rattus norvegicus [47] = species on record: Rattus norvegicus; assay: Biodistribution in rat blood in the presence of 0.05 M/0.08 M GdDTPA-HPDP; format: ADME, organism-based; settings: in vivo
Rattus norvegicus [48] = species on record: Rattus norvegicus; assay: Biodistribution in rat heart in the presence of GdDTPA; settings: in vivo
Rattus norvegicus [49] = species on record: Rattus norvegicus; assay: Biodistribution in rat heart in the presence of GdDTPA at 20 min; settings: in vivo, 0.33 h
Rattus norvegicus [50] = species on record: Rattus norvegicus; assay: Biodistribution in rat bone in the presence of GdDTPA-BDP at 1 h; settings: in vivo
Rattus norvegicus [51] = species on record: Rattus norvegicus; assay: Biodistribution in rat heart in the presence of GdDTPA-BDP at 2 hr; settings: in vivo
Rattus norvegicus [52] = species on record: Rattus norvegicus; assay: Biodistribution in rat heart in the presence of GdDTPA-BDP at 1 hr; settings: in vivo
Rattus norvegicus [53] = species on record: Rattus norvegicus; assay: Biodistribution in rat blood in the presence of GdDTPA-BDP at 1 hr; settings: in vivo
Rattus norvegicus [54] = species on record: Rattus norvegicus; assay: Biodistribution in rat bone in the presence of GdDTPA-BDP at 20 min; settings: in vivo, 0.33 h
Rattus norvegicus [55] = species on record: Rattus norvegicus; assay: Biodistribution in rat blood in the presence of GdDTPA-BDP at 20 min; settings: in vivo, 0.33 h
Rattus norvegicus [56] = species on record: Rattus norvegicus; assay: Biodistribution in rat liver in the presence of GdDTPA-BDP at 20 min; settings: in vivo, 0.33 h

- ID/organ (Rattus norvegicus [1]): 13.3%
- ID/organ (Rattus norvegicus [2]): 0.779%
- ID/organ (Rattus norvegicus [3]): 0.779%
- ID/organ (Rattus norvegicus [4]): 0.287%
- ID/organ (Rattus norvegicus [5]): 17.6%
- ID/organ (Rattus norvegicus [6]): 16.8%
- ID/organ (Rattus norvegicus [7]): 0.012%
- ID/organ (Rattus norvegicus [8]): 0.016%
- ID/organ (Rattus norvegicus [9]): 0.019%
- ID/organ (Rattus norvegicus [10]): 17.6%
- ID/organ (Rattus norvegicus [11]): 0.222%
- ID/organ (Rattus norvegicus [12]): 0.423%
- ID/organ (Rattus norvegicus [13]): 0.273%
- ID/organ (Rattus norvegicus [14]): 0.745%
- ID/organ (Rattus norvegicus [15]): 0.519%
- ID/organ (Rattus norvegicus [16]): 0.202%
- ID/organ (Rattus norvegicus [17]): 4.47%
- ID/organ (Rattus norvegicus [18]): 4.5%
- ID/organ (Rattus norvegicus [19]): 8.97%
- ID/organ (Rattus norvegicus [20]): 0.889%
- ID/organ (Rattus norvegicus [21]): 0.223%
- ID/organ (Rattus norvegicus [22]): 4.09%
- ID/organ (Rattus norvegicus [23]): 0.185%
- ID/organ (Rattus norvegicus [24]): 0.013%
- ID/organ (Rattus norvegicus [25]): 5.21%
- ID/organ (Rattus norvegicus [26]): 18.3%
- ID/organ (Rattus norvegicus [27]): 1.23%
- ID/organ (Rattus norvegicus [28]): 14.8%
- ID/organ (Rattus norvegicus [29]): 0.795%
- ID/organ (Rattus norvegicus [30]): 1.59%
- ID/organ (Rattus norvegicus [31]): 0.418%
- ID/organ (Rattus norvegicus [32]): 2.26%
- ID/organ (Rattus norvegicus [33]): 4.07%
- ID/organ (Rattus norvegicus [34]): 16.3%
- ID/organ (Rattus norvegicus [35]): 0.483%
- ID/organ (Rattus norvegicus [36]): 17.6%
- ID/organ (Rattus norvegicus [37]): 0.143%
- ID/organ (Rattus norvegicus [38]): 9.49%
- ID/organ (Rattus norvegicus [39]): 0.503%
- ID/organ (Rattus norvegicus [40]): 0.556%
- ID/organ (Rattus norvegicus [41]): 1.62%
- ID/organ (Rattus norvegicus [42]): 0.094%
- ID/organ (Rattus norvegicus [43]): 1.02%
- ID/organ (Rattus norvegicus [44]): 0.081%
- ID/organ (Rattus norvegicus [45]): 0.201%
- ID/organ (Rattus norvegicus [46]): 6.36%
- ID/organ (Rattus norvegicus [47]): 0.27%
- ID/organ (Rattus norvegicus [48]): 0.019%
- ID/organ (Rattus norvegicus [49]): 0.097%
- ID/organ (Rattus norvegicus [50]): 17.6%
- ID/organ (Rattus norvegicus [51]): 0.048%
- ID/organ (Rattus norvegicus [52]): 0.055%
- ID/organ (Rattus norvegicus [53]): 2.74%
- ID/organ (Rattus norvegicus [54]): 11%
- ID/organ (Rattus norvegicus [55]): 4.43%
- ID/organ (Rattus norvegicus [56]): 1.02%
SMILES: O=C(O)CN(CCN(CC(=O)O)CC(=O)O)CCN(CC(=O)O)CC(=O)O [PENTETIC ACID]
